Assay results reported in patent US11261192B2, “Substituted 1,2-dihydro-3H-pyrazolo[3,4-D]pyrimidin-3-ones” (Recurium IP Holdings, LLC, priority 2018, dated 2022).

test system: H23 cells; test: H23 Cellular Proliferation Assay (CellTiter-Glo); format: cell-based; details: Homo sapiens, NCI-H23, 96 h, 4 days, read-out: H23 CTG IC50
Procedure: H23 Cellular Proliferation Assay
Cells were treated with compounds diluted in DMSO and a 9 point 5-fold serial dilutions. Plates were placed in 37° C., 5% CO2 for to incubate for 4 days. Before they were developed by adding 100 μL of CellTiter-Glo reagent (Promega) to the assay plate, plates were shaken briefly for 2 mins and allowed to incubate at rt for 10 mins. The plates are read with a M5e plate reader according to CellTiter-Glo protocol. The GraphPad Prism software is used to get IC50 values.

Row | Structure (SMILES) | IC50 [µM]
1 | C=CCn1c(=O)c2cnc(Nc3ccc(N4CCN(C)CC4)cc3)nc2n1-c1ccc2c(n1)[C@@](O)(CC)CC2 (single isomer, unassigned) [Example 9B] | 0.1 to 1
2 | C=CCn1c(=O)c2cnc(Nc3ccc(N4CCN(C)CC4)c(C)c3)nc2n1-c1ccc2c(n1)[C@@](C)(O)CC2 (single isomer, unassigned) [Example 10A] | 0.1 to 1
3 | C=CCn1c(=O)c2cnc(Nc3ccc(N4CCN(C)CC4)c(C)c3)nc2n1-c1ccc2c(n1)[C@](C)(O)CC2 (single isomer, unassigned) [Example 10B] | 0.1 to 1
4 | C=CCn1c(=O)c2cnc(Nc3ccc(N4CCN(C)CC4)c(F)c3)nc2n1-c1ccc2c(n1)[C@@](C)(O)CC2 (single isomer, unassigned) [Example 11A] | > 1
5 | C=CCn1c(=O)c2cnc(Nc3ccc(N4CCN(C)CC4)c(F)c3)nc2n1-c1ccc2c(n1)[C@](C)(O)CC2 (single isomer, unassigned) [Example 11B] | 0.1 to 1
6 | C=CCn1c(=O)c2cnc(Nc3ccc(N4CCN(C)CC4)c(C)c3)nc2n1-c1ccc2c(n1)[C@](O)(CC)CC2 (single isomer, unassigned) [Example 12A] | 0.1 to 1
7 | C=CCn1c(=O)c2cnc(Nc3ccc(N4CCN(C)CC4)c(C)c3)nc2n1-c1ccc2c(n1)[C@@](O)(CC)CC2 (single isomer, unassigned) [Example 12B] | < 0.1
8 | C=CCn1c(=O)c2cnc(Nc3ccc(N4CCN(C)CC4)cc3)nc2n1-c1ccc2c(n1)[C@](O)(C(F)F)CC2 (single isomer, unassigned) [Example 15A] | > 1
9 | C=CCn1c(=O)c2cnc(Nc3ccc(N4CCN(C)CC4)cc3)nc2n1-c1ccc2c(n1)[C@@](O)(C(F)F)CC2 (single isomer, unassigned) [Example 15B] | 0.1 to 1
10 | C=CCn1c(=O)c2cnc(Nc3ccc(N4CCN(C)CC4)cc3)nc2n1-c1ccc2c(n1)[C@@](O)(C1CC1)CC2 (single isomer, unassigned) [Example 16B] | 0.1 to 1
11 | C=CCn1c(=O)c2cnc(Nc3ccc(N4CCN(C)CC4)cc3)nc2n1-c1ccc2c(c1)[C@@](C)(O)CC2 (single isomer, unassigned) [Example 21A] | > 1
12 | C=CCn1c(=O)c2cnc(Nc3ccc(N4CCN(C)CC4)cc3)nc2n1-c1ccc2c(c1)[C@](C)(O)CC2 (single isomer, unassigned) [Example 21B] | 0.1 to 1
13 | C=CCn1c(=O)c2cnc(Nc3ccc(N4CCN(C)CC4)cc3)nc2n1-c1ccc2c(c1)[C@](O)(CC)CC2 (single isomer, unassigned) [Example 22A] | > 1
14 | C=CCn1c(=O)c2cnc(Nc3ccc(N4CCN(C)CC4)cc3)nc2n1-c1ccc2c(c1)[C@@](O)(CC)CC2 (single isomer, unassigned) [Example 22B] | 0.1 to 1
15 | C=CCn1c(=O)c2cnc(Nc3ccc(N4CCN(C)CC4)cc3)nc2n1-c1ccc2c(n1)[C@@](C)(O)CCC2 (single isomer, unassigned) [Example 25A] | 0.1 to 1
16 | C=CCn1c(=O)c2cnc(Nc3ccc(N4CCN(C)CC4)cc3)nc2n1-c1ccc2c(n1)[C@](C)(O)CCC2 (single isomer, unassigned) [Example 25B] | 0.1 to 1
17 | C=CCn1c(=O)c2cnc(Nc3ccc(N4CCN(C)CC4)cc3)nc2n1-c1ccc2c(n1)[C@](O)(CC)CCC2 (single isomer, unassigned) [Example 26A] | > 1
18 | C=CCn1c(=O)c2cnc(Nc3ccc(N4CCN(C)CC4)cc3)nc2n1-c1ccc2c(n1)[C@@](O)(CC)CCC2 (single isomer, unassigned) [Example 26B] | < 0.1

target: Wee1 kinase (Homo sapiens, UniProt P30291); test: Wee1 Binding Assay (FRET); details: not given
Sequence (P30291 whole entry): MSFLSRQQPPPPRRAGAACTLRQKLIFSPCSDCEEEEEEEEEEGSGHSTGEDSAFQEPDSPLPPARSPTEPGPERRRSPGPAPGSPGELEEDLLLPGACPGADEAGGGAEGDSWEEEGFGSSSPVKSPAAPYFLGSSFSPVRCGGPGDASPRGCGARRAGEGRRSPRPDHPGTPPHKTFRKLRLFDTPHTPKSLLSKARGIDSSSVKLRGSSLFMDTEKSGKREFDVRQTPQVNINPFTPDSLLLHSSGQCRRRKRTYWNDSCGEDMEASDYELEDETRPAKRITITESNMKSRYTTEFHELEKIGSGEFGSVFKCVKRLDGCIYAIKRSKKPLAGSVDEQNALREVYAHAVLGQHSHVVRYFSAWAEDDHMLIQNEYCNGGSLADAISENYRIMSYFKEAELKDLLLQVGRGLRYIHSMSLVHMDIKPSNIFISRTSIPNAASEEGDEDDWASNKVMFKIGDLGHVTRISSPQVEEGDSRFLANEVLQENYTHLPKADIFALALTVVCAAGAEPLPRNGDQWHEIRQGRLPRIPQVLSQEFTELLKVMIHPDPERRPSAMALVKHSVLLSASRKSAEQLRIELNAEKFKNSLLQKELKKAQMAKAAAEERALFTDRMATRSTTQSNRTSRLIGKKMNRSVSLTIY
Procedure: Wee 1 kinase was determined by using Fluorescence Resonance Energy Transfer (FRET) assay. […] The plate was shaken for 30 seconds, incubated for 60 min at RT, and recorded on fluorescence plate reader.

Row | Structure (SMILES) | IC50 [µM]
19 | C=CCn1c(=O)c2cnc(Nc3ccc(N4CCN(C)CC4)cc3)nc2n1-c1ccc2c(n1)[C@@](O)(CC)CC2 (single isomer, unassigned) [Example 9B] | < 0.01
20 | C=CCn1c(=O)c2cnc(Nc3ccc(N4CCN(C)CC4)c(C)c3)nc2n1-c1ccc2c(n1)[C@@](C)(O)CC2 (single isomer, unassigned) [Example 10A] | < 0.01
21 | C=CCn1c(=O)c2cnc(Nc3ccc(N4CCN(C)CC4)c(C)c3)nc2n1-c1ccc2c(n1)[C@](C)(O)CC2 (single isomer, unassigned) [Example 10B] | < 0.01
22 | C=CCn1c(=O)c2cnc(Nc3ccc(N4CCN(C)CC4)c(C)c3)nc2n1-c1ccc2c(n1)[C@](O)(CC)CC2 (single isomer, unassigned) [Example 12A] | < 0.01
23 | C=CCn1c(=O)c2cnc(Nc3ccc(N4CCN(C)CC4)c(C)c3)nc2n1-c1ccc2c(n1)[C@@](O)(CC)CC2 (single isomer, unassigned) [Example 12B] | < 0.01
24 | C=CCn1c(=O)c2cnc(Nc3ccc(N4CCN(C)CC4)cc3)nc2n1-c1ccc2c(n1)[C@](O)(C(F)F)CC2 (single isomer, unassigned) [Example 15A] | < 0.01
25 | C=CCn1c(=O)c2cnc(Nc3ccc(N4CCN(C)CC4)cc3)nc2n1-c1ccc2c(n1)[C@@](O)(C(F)F)CC2 (single isomer, unassigned) [Example 15B] | < 0.01
26 | C=CCn1c(=O)c2cnc(Nc3ccc(N4CCN(C)CC4)cc3)nc2n1-c1ccc2c(n1)[C@@](O)(C1CC1)CC2 (single isomer, unassigned) [Example 16B] | < 0.01
27 | C=CCn1c(=O)c2cnc(Nc3ccc(N4CCN(C)CC4)cc3)nc2n1-c1ccc2c(c1)[C@@](C)(O)CC2 (single isomer, unassigned) [Example 21A] | < 0.01
28 | C=CCn1c(=O)c2cnc(Nc3ccc(N4CCN(C)CC4)cc3)nc2n1-c1ccc2c(c1)[C@](C)(O)CC2 (single isomer, unassigned) [Example 21B] | < 0.01
29 | C=CCn1c(=O)c2cnc(Nc3ccc(N4CCN(C)CC4)cc3)nc2n1-c1ccc2c(n1)[C@@](C)(O)CCC2 (single isomer, unassigned) [Example 25A] | < 0.01
30 | C=CCn1c(=O)c2cnc(Nc3ccc(N4CCN(C)CC4)cc3)nc2n1-c1ccc2c(n1)[C@](C)(O)CCC2 (single isomer, unassigned) [Example 25B] | < 0.01
31 | C=CCn1c(=O)c2cnc(Nc3ccc(N4CCN(C)CC4)cc3)nc2n1-c1ccc2c(n1)[C@](O)(CC)CCC2 (single isomer, unassigned) [Example 26A] | < 0.01
32 | C=CCn1c(=O)c2cnc(Nc3ccc(N4CCN(C)CC4)cc3)nc2n1-c1ccc2c(n1)[C@@](O)(CC)CCC2 (single isomer, unassigned) [Example 26B] | < 0.01

same assay, conditions: FRET, Wee1 kinase 2 nM, tracer 178 50 nM, 60 min at RT; read-out: Wee1 enzymatic IC50

Row | Structure (SMILES) | IC50 [µM]
33 | C=CCn1c(=O)c2cnc(Nc3ccc(N4CCN(C)CC4)c(F)c3)nc2n1-c1ccc2c(n1)[C@@](C)(O)CC2 (single isomer, unassigned) [Example 11A] | < 0.01
34 | C=CCn1c(=O)c2cnc(Nc3ccc(N4CCN(C)CC4)c(F)c3)nc2n1-c1ccc2c(n1)[C@](C)(O)CC2 (single isomer, unassigned) [Example 11B] | < 0.01
35 | C=CCn1c(=O)c2cnc(Nc3ccc(N4CCN(C)CC4)cc3)nc2n1-c1ccc2c(c1)[C@](O)(CC)CC2 (single isomer, unassigned) [Example 22A] | 0.01 to 0.1
36 | C=CCn1c(=O)c2cnc(Nc3ccc(N4CCN(C)CC4)cc3)nc2n1-c1ccc2c(c1)[C@@](O)(CC)CC2 (single isomer, unassigned) [Example 22B] | < 0.01
